Measurements from patent US20140024527A1, “HERBICIDAL PYRAZINONES” (E I DU DE NEMOURS AND COMPANY, priority 2011, published 2014).

Assays:
Assay in all cases: Test B postemergence
Assay type in all cases: in vivo
Conditions in all cases: scale 0 to 100
[1] = tested on: deadnettle (Lamium amplexicaule)
From the text: (§1) Seeds of plant species selected from blackgrass (Alopecurus myosuroides), downy bromegrass (Bromus tectorum), green foxtail (Setaria viridis), Italian ryegrass (Lolium multiflorum), wheat (Triticum aestivum), wild oat (Avena fatua), galium (Galium aparine), bermudagrass (Cynodon dactylon), Surinam grass (Brachiaria decumbens), cocklebur (Xanthium strumarium), corn (Zea mays), large crabgrass (Digitaria sanguinalis), woolly cupgrass (Eriochloa villosa), giant foxtail (Setaria faberii), goosegrass (Eleusine indica), johnsongrass (Sorghum halepense), kochia (Kochia scoparia), lambsquarters (Chenopodium album), morningglory (Ipomoea coccinea), yellow nutsedge (Cyperus esculentus), pigweed (Amaranthus retroflexus), ragweed (Ambrosia elatior), soybean (Glycine max), velvetleaf (Abutilon theophrasti), barley (Hordeum vulgare), canarygrass (Phalaris minor), chickweed (Stellaria media), deadnettle (Lamium amplexicaule) and windgrass (Apera spica-venti) were planted in pots containing Redi-Earth® planting medium (Scotts Company, Marysville, Ohio, USA) comprising spaghnum peat moss, vermiculite, wetting agent and starter nutrients and treated postemergence with test compounds formulated in a non-phytotoxic solvent mixture which included a surfactant. Plants ranged in height from 2 to 18 cm (1- to 4-leaf stage).
(§2) Treated plants and controls were maintained in a greenhouse for 13 to 15 days, after which time all species were compared to controls and visually evaluated. Plant response ratings, summarized in Table B, are based on a scale of 0 to 100 where 0 is no effect and 100 is complete control. A dash (-) response means no test result.

[2] = tested on: large crabgrass (Digitaria sanguinalis)
From the text: as §1, §2

[3] = tested on: blackgrass (Alopecurus myosuroides)
From the text: as §1, §2

[4] = tested on: green foxtail (Setaria viridis)
From the text: as §1, §2

[5] = tested on: windgrass (Apera spica-venti)
From the text: as §1, §2

corn (Zea mays) = tested on: corn (Zea mays)
From the text: as §1, §2

[6] = tested on: ragweed (Ambrosia elatior)
From the text: as §1, §2

[7] = tested on: chickweed (Stellaria media)
From the text: as §1, §2

[8] = tested on: yellow nutsedge (Cyperus esculentus)
From the text: as §1, §2

[9] = tested on: wheat (Triticum aestivum)
From the text: as §1, §2

[10] = tested on: cocklebur (Xanthium strumarium)
From the text: as §1, §2

[11] = tested on: velvetleaf (Abutilon theophrasti)
From the text: as §1, §2

kochia (Kochia scoparia) = tested on: kochia (Kochia scoparia)
From the text: as §1, §2

galium (Galium aparine) = tested on: galium (Galium aparine)
From the text: as §1, §2

[12] = tested on: johnsongrass (Sorghum halepense)
From the text: as §1, §2

[13] = tested on: lambsquarters (Chenopodium album)
From the text: as §1, §2

soybean (Glycine max) = tested on: soybean (Glycine max)
From the text: as §1, §2

[14] = tested on: pigweed (Amaranthus retroflexus)
From the text: as §1, §2

[15] = tested on: giant foxtail (Setaria faberii)
From the text: as §1, §2

[16] = tested on: goosegrass (Eleusine indica)
From the text: as §1, §2

[17] = tested on: Surinam grass (Brachiaria decumbens)
From the text: as §1, §2

## COCCn1c(-c2cc(F)cc(F)c2)c(Cl)nc(C(=O)C2=C(O)CCCC2=O)c1=O [Compound 6, 5-chloro-6-(3,5-difluorophenyl)-3-[(2-hydroxy-6-oxo-1-cyclohexen-1-yl)carbonyl]-1-(2-methoxyethyl)-2(1H)-pyrazinone]
[1]; 31 g ai/ha
  Plant response rating, Deadnettle: 85
[1]; 62 g ai/ha
  Plant response rating, Deadnettle: 85
[1]; 125 g ai/ha
  Plant response rating, Deadnettle: 85
[1]; 250 g ai/ha
  Plant response rating, Deadnettle: 100
[2]; 31 g ai/ha
  Plant response rating, Crabgrass, Large: 75
[2]; 62 g ai/ha
  Plant response rating, Crabgrass, Large: 85
[2]; 125 g ai/ha
  Plant response rating, Crabgrass, Large: 95
[2]; 250 g ai/ha
  Plant response rating, Crabgrass, Large: 98
[3]; 31 g ai/ha
  Plant response rating, Blackgrass: 50
[3]; 62 g ai/ha
  Plant response rating, Blackgrass: 55
[3]; 125 g ai/ha
  Plant response rating, Blackgrass: 60
[3]; 250 g ai/ha
  Plant response rating, Blackgrass: 60
[4]; 31 g ai/ha
  Plant response rating, Foxtail, Green: 50
[4]; 62 g ai/ha
  Plant response rating, Foxtail, Green: 70
[4]; 125 g ai/ha
  Plant response rating, Foxtail, Green: 85
[4]; 250 g ai/ha
  Plant response rating, Foxtail, Green: 98
[5]; 31 g ai/ha
  Plant response rating, Windgrass: 60
[5]; 62 g ai/ha
  Plant response rating, Windgrass: 75
[5]; 125 g ai/ha
  Plant response rating, Windgrass: 80
[5]; 250 g ai/ha
  Plant response rating, Windgrass: 80
Corn (Zea mays); 31 g ai/ha
  Plant response rating, Corn: 45
Corn (Zea mays); 62 g ai/ha
  Plant response rating, Corn: 45
Corn (Zea mays); 125 g ai/ha
  Plant response rating, Corn: 65
Corn (Zea mays); 250 g ai/ha
  Plant response rating, Corn: 80
[6]; 31 g ai/ha
  Plant response rating, Ragweed: 40
[6]; 62 g ai/ha
  Plant response rating, Ragweed: 60
[6]; 125 g ai/ha
  Plant response rating, Ragweed: 65
[6]; 250 g ai/ha
  Plant response rating, Ragweed: 98
[7]; 31 g ai/ha
  Plant response rating, Chickweed: 10
[7]; 62 g ai/ha
  Plant response rating, Chickweed: 25
[7]; 125 g ai/ha
  Plant response rating, Chickweed: 55
[7]; 250 g ai/ha
  Plant response rating, Chickweed: 75
[8]; 31 g ai/ha
  Plant response rating, Nutsedge, Yellow: 40
[8]; 62 g ai/ha
  Plant response rating, Nutsedge, Yellow: 45
[8]; 125 g ai/ha
  Plant response rating, Nutsedge, Yellow: 80
[8]; 250 g ai/ha
  Plant response rating, Nutsedge, Yellow: 80
[9]; 31 g ai/ha
  Plant response rating, Wheat: 45
[9]; 62 g ai/ha
  Plant response rating, Wheat: 45
[9]; 125 g ai/ha
  Plant response rating, Wheat: 50
[9]; 250 g ai/ha
  Plant response rating, Wheat: 60
[10]; 31 g ai/ha
  Plant response rating, Cocklebur: 50
[10]; 62 g ai/ha
  Plant response rating, Cocklebur: 75
[10]; 125 g ai/ha
  Plant response rating, Cocklebur: 95
[10]; 250 g ai/ha
  Plant response rating, Cocklebur: 100
[11]; 31 g ai/ha
  Plant response rating, Velvetleaf: 60
[11]; 62 g ai/ha
  Plant response rating, Velvetleaf: 65
[11]; 125 g ai/ha
  Plant response rating, Velvetleaf: 80
[11]; 250 g ai/ha
  Plant response rating, Velvetleaf: 80
Kochia (Kochia scoparia); 31 g ai/ha
  Plant response rating, Kochia: 5
Kochia (Kochia scoparia); 62 g ai/ha
  Plant response rating, Kochia: 40
Kochia (Kochia scoparia); 125 g ai/ha
  Plant response rating, Kochia: 40
Kochia (Kochia scoparia); 250 g ai/ha
  Plant response rating, Kochia: 45
Galium (Galium aparine); 31 g ai/ha
  Plant response rating, Galium: 40
Galium (Galium aparine); 62 g ai/ha
  Plant response rating, Galium: 50
Galium (Galium aparine); 125 g ai/ha
  Plant response rating, Galium: 60
Galium (Galium aparine); 250 g ai/ha
  Plant response rating, Galium: 65
[12]; 31 g ai/ha
  Plant response rating, Johnsongrass: 80
[12]; 62 g ai/ha
  Plant response rating, Johnsongrass: 80
[12]; 125 g ai/ha
  Plant response rating, Johnsongrass: 85
[12]; 250 g ai/ha
  Plant response rating, Johnsongrass: 100
[13]; 31 g ai/ha
  Plant response rating, Lambsquarters: 80
[13]; 62 g ai/ha
  Plant response rating, Lambsquarters: 98
[13]; 125 g ai/ha
  Plant response rating, Lambsquarters: 100
[13]; 250 g ai/ha
  Plant response rating, Lambsquarters: 100
Soybean (Glycine max); 31 g ai/ha
  Plant response rating, Soybean: 45
Soybean (Glycine max); 62 g ai/ha
  Plant response rating, Soybean: 65
Soybean (Glycine max); 125 g ai/ha
  Plant response rating, Soybean: 70
Soybean (Glycine max); 250 g ai/ha
  Plant response rating, Soybean: 95
[14]; 31 g ai/ha
  Plant response rating, Pigweed: 80
[14]; 62 g ai/ha
  Plant response rating, Pigweed: 95
[14]; 125 g ai/ha
  Plant response rating, Pigweed: 98
[14]; 250 g ai/ha
  Plant response rating, Pigweed: 98
[15]; 31 g ai/ha
  Plant response rating, Foxtail, Giant: 65
[15]; 62 g ai/ha
  Plant response rating, Foxtail, Giant: 65
[15]; 125 g ai/ha
  Plant response rating, Foxtail, Giant: 80
[15]; 250 g ai/ha
  Plant response rating, Foxtail, Giant: 95
[16]; 31 g ai/ha
  Plant response rating, Goosegrass: 75
[16]; 62 g ai/ha
  Plant response rating, Goosegrass: 80
[16]; 125 g ai/ha
  Plant response rating, Goosegrass: 95
[16]; 250 g ai/ha
  Plant response rating, Goosegrass: 98
[17]; 31 g ai/ha
  Plant response rating, Surinam Grass: 75
[17]; 62 g ai/ha
  Plant response rating, Surinam Grass: 75
[17]; 125 g ai/ha
  Plant response rating, Surinam Grass: 85
[17]; 250 g ai/ha
  Plant response rating, Surinam Grass: 98
